Test results reported in patent publication US10632117B2, “GSK3B and uses thereof in the diagnostic and treatment of hypopigmentation disorders” (INSERM (INSTITUT NATIONAL DE LA SANTE ET DE LA RECHERCHE …, priority 2014, dated 2020).

Experiments:
Format in all cases: cell-based, human
[1] = tested on: melanocyte stem cells in depigmented skin from vitiligo patients; assay: Ex vivo depigmented vitiligo skin, immunohistostaining for co-expression of DCT and PAX3; settings: 14 days, every other day, SKL2001 40 μM, CHIR99021 3 μM, LiCl 20 μM, immunofluorescence
Experimental: Depigmented skin from vitiligo patients [A (control culture medium)] were stimulated in ex vivo culture with WNT agonist SKL2001 (40 μM) (B), GSK3β inhibitor CHIR99021 (3 μM) (C) or GSK3β inhibitor LiCl 20 μM (D) every other day to activate the WNT pathway. After 14 days, the skin response was analyzed by immunohistostaining with pre-melanocytes markers: a DCT staining (green) and PAX3 staining (red).
(§1) For vitiligo skin biopsies, after verification of the absence of melanocytes with Wood's lamp, two or three 6 mm biopsies composed of dermis plus epidermis were taken into lesional skin from vitiligo patients (n=9). The biopsies are rapidly put on transwell chamber of 0.4 μm (Becton Dickinson) and kept on semi liquid culture conditions in “Skin long term culture medium” (Biopredic). The skin was maintained at 37° C. in a wet 5% CO2, atmosphere.
(§2) The culture medium supplemented with Forskolin (Sigma Aldrich), LiCl (Sigma Aldrich), CHIR99021 (Calbiochem) or SKL2001 (Calbiochem) was changed […] during 14 days.
Biopsies were fixed with 4% formol, embedded in paraffin, cut with microtome of […] sections and fixed on superfrost plus slides (Thermoscientific). […]

[2] = tested on: WNT pathway; assay: Ex vivo culture of lesional vitiligo skin biopsies with WNT pathway activators, RT-qPCR of WNT family and LEF; settings: 14 days, stimulation every other day, CHIR99021 3 μM, LiCl 20 μM, SKL2001 40 μM
Experimental: as §1, §2
(§3) mRNA from melanocytes and keratinocytes was extracted with RNeasy kit (Qiagen). The biopsies are cut and disrupted with tissue ruptor (Qiagen) and the mRNA was extracted with RNeasy kit (Qiagen). cDNA were synthesized from 300 ng to 1 μg of mRNA with the Reverse Transcription System (Promega). Relative quantification of gene expression was measured by real time qPCR with Sybr green reagent (Life technology) on Step one system.
(§4) In order to induce the differentiation of melanocyte stem cells, they pharmacologically activated the WNT pathway in vitiligo skin cultured ex vivo as shown previously. They used two methods to activate the WNT pathway: a WNT agonist (SKL2001) and two GSK3β inhibitors: lithium chloride (LiCl) and a commercial specific inhibitor (CHIR99021). They biopsied 9 vitiligo subjects (6 mm punch) on diverse body locations ([…], 2 on trunk, 2 on leg, 1 on arm and 1 on axilla) and treated the ex vivo culture model during 14 days with a systemic stimulation every other day with the WNT activators.
(§5) They evaluated the activation of WNT pathway by the mRNA level of WNTs (TCF/LEF1 and the melanogenesis pathway by the mRNA level of MITF, DCT, PAX3 and BRn2) within the skin.

[3] = tested on: depigmented skin from vitiligo patients; assay: Ex vivo culture of lesional vitiligo skin biopsies, RT-qPCR of melanoblast / pre-melanocyte markers; settings: 14 days, SKL2001 40 μM; for mRNA level of early melanoblast marker Brn2 / mRNA level of early melanoblast marker PAX3: CHIR99021 3 μM, LiCl 20 μM
Experimental: as §1, §2, §3, §4, §5

[4] = tested on: whole skin in ex vivo culture; assay: Oxidative stress (H2O2) in whole skin in ex vivo culture: qPCR of LEF and WNT family; settings: skin biopsies ex vivo, 24 hours, 25 to 100 μM H2O2
Experimental: (§6) NHM (A) and NHK (B) and whole skin in ex vivo culture (C) were stimulated 24 hours with 25 to 100 μM of H2O2. After mRNA extraction, a reverse transcription was performed and the relative gene expression of LEF1 was analyzed with qPCR.
(§7) (A) NHM, (B) NHK and (C) whole skin in ex vivo culture were stimulated 24 hours with 25 to 100 μM of H2O2. After mRNA extraction, a reverse transcription was performed and the relative gene expression of WNT family was analyzed with qPCR.
Skin from abdominoplasty surgery was used to the development of the ex vivo skin culture model. The subcutaneous fat was removed and biopsies of 6 mm were done in the skin composed of dermis and epidermis.
as §3

[5] = tested on: NHM (melanocytes); assay: Oxidative stress (H2O2) in NHM: qPCR of LEF and WNT family, TCF/LEF luciferase reporter; settings: 24 hours, 25 to 100 μM H2O2
Experimental: as §6, §7
(§8) NHMs and NHKs are obtained from the foreskin of phototype IV children as described previously. Briefly, epidermal cells are obtained by overnight digestion of the skin in a dispase solution (Roche) at 4° C. followed by the digestion of the epidermis in a trypsin/EDTA solution during 20 minutes at 37° C. […]
(§9) mRNA from melanocytes and keratinocytes was extracted with RNeasy kit (Qiagen). […] Relative quantification of gene expression was measured by real time qPCR with Sybr green reagent (Life technology) on Step one system.
(§10) NHK and NHM were co-infected with the lentivirus TCF/LEF Reporter Luciferase and Cignal Lenti Reporter Control Renilla (Qiagen) and the infected cells were selected with Puromycin for 14 days. NHM and NHK selected were stimulated 24 h with SKL2001 and H2O2 and the TCF/LEF activity was measured with Dual Luciferase Reporter Assay System (Promega).

[6] = tested on: NHK (keratinocytes); assay: Oxidative stress (H2O2) in NHK: qPCR of LEF and WNT family, TCF/LEF luciferase reporter; settings: 24 hours, 25 to 100 μM H2O2
Experimental: as §6, §7, §8, §9, §10

## Cc1c[nH]c(-c2cnc(NCCNc3ccc(C#N)cn3)nc2-c2ccc(Cl)cc2Cl)n1 [CHIR99021]
[1]
  co-expression of DCT and PAX3 (differentiation of melanocyte stem cells into pre-melanocytes): melanoblast in differentiation within the dermis
[2]
  relative expression of LEF mRNA: increase
  relative expression of WNT family mRNA: increase
[3]
  mRNA level of early melanoblast marker Brn2: up-regulated
  mRNA level of early melanoblast marker PAX3: up-regulated

## OO [H2O2]
[4]
  expression of LEF: decrease
  expression of most of the WNT family: decrease
[5]
  expression of LEF: decreased
  expression of the majority of WNT: decreased
[6]
  expression of LEF: decreased
  expression of the majority of WNT: decreased

## O=C(NCCCn1ccnc1)c1cc(-c2ccco2)on1 [SKL2001]
[1]
  co-expression of DCT and PAX3 (differentiation of melanocyte stem cells into pre-melanocytes): melanoblast in differentiation within the dermis
[2]
  relative expression of LEF mRNA: increase
  relative expression of WNT family mRNA: increase
[3]
  mRNA level of early melanoblast marker Brn2: up-regulated
  mRNA level of early melanoblast marker PAX3: up-regulated
  level of MITF mRNA: increased
